Calls of active or inactive are those of the source.
Columns and labels:
[1] = target: Luciferin 4-monooxygenase (Photinus pyralis, UniProt P08659); test: inhibition of purified Photinus pyralis luciferase – biochemical, luminescence, dose response (AID 1891)
[2] = Luminescence Cell-Based Dose Confirmation HTS to Identify Inhibitors of Platelet Dense Granule Release. [Related pubchem assays: 1663 (Primary HTS), 1678 (Summary of Project)]; type: functional
Cytochrome P450 2D6 = Cytochrome P450 2D6 (Homo sapiens, UniProt P10635);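 further: CYP2D6 member of a cytochrome P450 panel assay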
Chain of Cytochrome P450 2D6 (P10635 whole entry): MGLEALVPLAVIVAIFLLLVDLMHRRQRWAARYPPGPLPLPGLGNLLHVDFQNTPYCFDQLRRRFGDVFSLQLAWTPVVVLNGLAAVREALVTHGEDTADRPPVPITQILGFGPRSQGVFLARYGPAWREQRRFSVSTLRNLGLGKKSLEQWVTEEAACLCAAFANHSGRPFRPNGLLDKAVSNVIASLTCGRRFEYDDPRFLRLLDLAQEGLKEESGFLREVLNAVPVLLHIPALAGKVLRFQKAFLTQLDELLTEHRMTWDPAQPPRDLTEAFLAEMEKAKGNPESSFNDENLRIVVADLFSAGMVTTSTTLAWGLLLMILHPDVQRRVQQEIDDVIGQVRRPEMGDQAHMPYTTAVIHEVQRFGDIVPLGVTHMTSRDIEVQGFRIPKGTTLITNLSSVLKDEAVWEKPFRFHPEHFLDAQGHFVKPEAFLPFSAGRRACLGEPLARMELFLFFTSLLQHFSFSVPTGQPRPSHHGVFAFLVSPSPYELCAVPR

Cytochrome P450 1A2 = target: T1, Cytochrome P450 1A2 (Homo sapiens, UniProt P05177);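 further: PubChem cytochrome P450 panel assay, CYP1A2 panel member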
T1 sequence (P05177 whole entry): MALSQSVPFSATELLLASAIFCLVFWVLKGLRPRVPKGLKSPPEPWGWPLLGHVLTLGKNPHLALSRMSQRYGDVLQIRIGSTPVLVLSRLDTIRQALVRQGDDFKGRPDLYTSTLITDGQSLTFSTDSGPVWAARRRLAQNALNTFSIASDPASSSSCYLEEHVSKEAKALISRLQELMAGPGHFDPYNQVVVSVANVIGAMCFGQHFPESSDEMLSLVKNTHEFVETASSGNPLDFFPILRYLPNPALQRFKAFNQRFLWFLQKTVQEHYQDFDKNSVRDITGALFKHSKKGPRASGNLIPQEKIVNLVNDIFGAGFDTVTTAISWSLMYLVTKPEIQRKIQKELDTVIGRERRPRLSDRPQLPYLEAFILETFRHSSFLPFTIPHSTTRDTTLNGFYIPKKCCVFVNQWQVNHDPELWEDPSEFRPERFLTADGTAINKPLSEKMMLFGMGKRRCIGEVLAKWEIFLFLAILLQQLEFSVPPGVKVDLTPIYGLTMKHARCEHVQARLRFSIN

Cytochrome P450 2C19 = Cytochrome P450 2C19 (Homo sapiens, UniProt P33261); test: Cytochrome panel assay with activity outcomes. Panel member name: p450-cyp2c19 Compounds with AC50 equal or less than 10 uM are considered active; type: functional
Chain of Cytochrome P450 2C19 (P33261 whole entry): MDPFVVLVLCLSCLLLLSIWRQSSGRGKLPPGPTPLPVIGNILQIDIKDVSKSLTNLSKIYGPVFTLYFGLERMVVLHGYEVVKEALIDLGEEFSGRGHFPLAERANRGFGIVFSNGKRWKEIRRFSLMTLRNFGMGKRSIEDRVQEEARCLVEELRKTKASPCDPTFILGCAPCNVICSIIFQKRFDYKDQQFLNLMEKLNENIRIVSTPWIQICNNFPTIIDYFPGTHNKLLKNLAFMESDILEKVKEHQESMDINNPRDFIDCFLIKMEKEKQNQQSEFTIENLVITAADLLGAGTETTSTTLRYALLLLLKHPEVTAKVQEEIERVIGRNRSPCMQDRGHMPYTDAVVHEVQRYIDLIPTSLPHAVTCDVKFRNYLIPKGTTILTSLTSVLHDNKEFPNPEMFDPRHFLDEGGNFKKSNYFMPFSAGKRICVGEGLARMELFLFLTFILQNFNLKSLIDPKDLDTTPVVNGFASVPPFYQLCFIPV

Cytochrome P450 2C9 = Cytochrome P450 2C9 (Homo sapiens, UniProt P11712)
Chain of Cytochrome P450 2C9 (P11712 whole entry): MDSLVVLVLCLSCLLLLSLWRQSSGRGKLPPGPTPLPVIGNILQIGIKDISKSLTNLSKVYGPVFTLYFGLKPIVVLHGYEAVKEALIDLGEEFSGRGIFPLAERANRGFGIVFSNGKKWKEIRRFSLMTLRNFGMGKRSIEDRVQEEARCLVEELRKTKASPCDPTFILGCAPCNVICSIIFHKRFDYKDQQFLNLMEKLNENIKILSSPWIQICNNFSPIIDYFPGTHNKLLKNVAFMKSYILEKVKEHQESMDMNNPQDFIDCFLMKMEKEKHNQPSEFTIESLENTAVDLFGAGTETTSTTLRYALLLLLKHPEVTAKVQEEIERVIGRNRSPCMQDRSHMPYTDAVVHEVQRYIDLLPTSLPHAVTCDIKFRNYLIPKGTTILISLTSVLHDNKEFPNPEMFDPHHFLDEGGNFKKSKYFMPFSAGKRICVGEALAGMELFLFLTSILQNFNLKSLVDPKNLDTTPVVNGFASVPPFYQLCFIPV

[3] = Luminescence Cell-Based Dose Confirmation HTS to Identify Activators of 5'UTR Stem-Loop Driven Alpha-Synuclein mRNA Translation in H4 Neuroglioblastoma Cells. [Related pubchem assays: 1829 (Project Summary), 1814 (Primary HTS)]; type: functional
[4] = Luminescence Cell-Based Dose Response HTS to Identify Activators of Luciferase Translation or Activity in H4 […] Cells. [Related pubchem assays: 1829 (Project Summary), 1814 (Primary HTS)]; type: functional
H4 = test: Luminescence Cell-Based Dose Response HTS to Identify Activators of 5'UTR Stem-Loop Driven Prion Protein mRNA Translation in H4 Neuroglioblastoma Cells. [Related pubchem assays: 1829 (Project Summary), 1814 (Primary HTS)]; type: functional; settings: Homo sapiens
[5] = Luminescence Cell-Based Dose Retest to Confirm Inhibitors of Cancer Stem Cells. [Related pubchem assays (depositor defined):AID2717, AID2721]; type: functional; settings: Homo sapiens
[6] = target: T2, RNA-binding protein pos-1 (Caenorhabditis elegans, UniProt G5EF15); test: disruptors of C. elegans POS-1 RNA interaction – biochemical, fluorescence polarization, dose response (AID 1964);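 further: purified POS-1 fused to maltose binding protein made in E. coli; potency of compounds blocking POS-1 binding to fluorescent RNA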
T2 sequence (G5EF15 whole entry): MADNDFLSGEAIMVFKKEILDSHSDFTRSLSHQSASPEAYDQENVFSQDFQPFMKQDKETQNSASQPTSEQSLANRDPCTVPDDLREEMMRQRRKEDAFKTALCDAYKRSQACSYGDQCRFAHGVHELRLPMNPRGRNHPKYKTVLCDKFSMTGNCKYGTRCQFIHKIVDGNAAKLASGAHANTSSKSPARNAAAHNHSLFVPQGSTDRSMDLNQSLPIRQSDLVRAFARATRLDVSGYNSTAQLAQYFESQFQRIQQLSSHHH

[7] = target: T3, Zinc finger protein mex-5 (Caenorhabditis elegans, UniProt Q9XUB2); test: potency of MEX-5 RNA-binding blockers – biochemical, C. elegans, fluorescence polarization, dose response (AID 1960)
T3 sequence (Q9XUB2 whole entry): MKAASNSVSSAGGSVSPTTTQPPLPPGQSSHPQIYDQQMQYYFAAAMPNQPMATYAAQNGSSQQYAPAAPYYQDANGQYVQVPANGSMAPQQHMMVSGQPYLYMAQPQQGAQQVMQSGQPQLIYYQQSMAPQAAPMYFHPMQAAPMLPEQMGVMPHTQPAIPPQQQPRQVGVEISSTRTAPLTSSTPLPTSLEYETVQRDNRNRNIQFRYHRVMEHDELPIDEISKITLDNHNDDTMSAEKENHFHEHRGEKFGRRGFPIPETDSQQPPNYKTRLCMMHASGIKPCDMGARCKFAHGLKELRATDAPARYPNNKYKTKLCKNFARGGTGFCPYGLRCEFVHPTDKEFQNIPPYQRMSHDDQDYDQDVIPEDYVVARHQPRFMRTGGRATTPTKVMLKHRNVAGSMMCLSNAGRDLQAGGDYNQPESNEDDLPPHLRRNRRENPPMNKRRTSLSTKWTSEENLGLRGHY

Cytochrome P450 3A4 = Cytochrome P450 3A4 (Homo sapiens, UniProt P08684);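 further: CYP3A4 tested as one member of a cytochrome P450 panel screen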
Chain of Cytochrome P450 3A4 (P08684 whole entry): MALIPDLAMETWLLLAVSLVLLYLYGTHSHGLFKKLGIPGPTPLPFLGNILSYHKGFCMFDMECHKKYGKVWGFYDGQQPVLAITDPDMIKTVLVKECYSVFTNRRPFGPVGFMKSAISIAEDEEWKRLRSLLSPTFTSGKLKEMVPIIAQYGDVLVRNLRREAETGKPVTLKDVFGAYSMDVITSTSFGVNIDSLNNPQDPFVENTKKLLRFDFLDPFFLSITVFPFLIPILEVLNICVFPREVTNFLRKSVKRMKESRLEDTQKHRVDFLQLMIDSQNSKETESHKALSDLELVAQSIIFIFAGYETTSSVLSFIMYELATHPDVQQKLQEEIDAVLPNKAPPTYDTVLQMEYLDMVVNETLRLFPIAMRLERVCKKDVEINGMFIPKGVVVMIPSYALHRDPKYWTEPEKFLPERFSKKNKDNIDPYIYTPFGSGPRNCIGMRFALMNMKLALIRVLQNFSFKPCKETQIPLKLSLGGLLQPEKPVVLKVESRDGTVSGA

[8] = reduction of Shn3 3'UTR-driven luciferase in osteoblasts – cell-based, Clone20 osteoblasts, firefly luciferase, cherry-picked, dose response (AID 624132); type: functional;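 further: firefly luciferase luminescence from reporter carrying the Shn3 3'UTR in osteoblasts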
[9] = non-specific 3'UTR reporter inhibition in Clone20-Shn3RL – cell-based, Renilla luciferase, cherry-picked, counter-screen for Shn3 inhibitor project, dose response (AID 624133); type: functional
Paired box protein Pax-8 = Paired box protein Pax-8 (Homo sapiens, UniProt Q06710); test: PAX8 transcriptional activity inhibition in RMG-I – RMG-I cells, luciferase, cherry-pick, dose response (AID 687027); type: functional, cell-based;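 further: luciferase reporter driven by Pax8 target thyroperoxidase promoter measured by SteadyGlo luminescence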
Chain of Paired box protein Pax-8 (Q06710 whole entry): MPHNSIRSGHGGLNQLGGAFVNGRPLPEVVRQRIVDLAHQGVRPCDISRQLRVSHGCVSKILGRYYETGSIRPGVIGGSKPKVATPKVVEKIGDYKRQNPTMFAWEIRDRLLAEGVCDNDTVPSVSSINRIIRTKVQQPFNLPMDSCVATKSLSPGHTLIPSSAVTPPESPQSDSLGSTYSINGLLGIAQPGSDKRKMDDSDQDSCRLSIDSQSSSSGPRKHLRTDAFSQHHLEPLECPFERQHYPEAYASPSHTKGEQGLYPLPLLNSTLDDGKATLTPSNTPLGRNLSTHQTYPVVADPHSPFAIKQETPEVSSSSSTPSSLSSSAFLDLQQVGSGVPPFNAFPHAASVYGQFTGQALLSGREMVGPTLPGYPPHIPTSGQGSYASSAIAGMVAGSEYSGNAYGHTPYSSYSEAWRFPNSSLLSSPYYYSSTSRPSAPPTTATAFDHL

cells = type: functional

Chain of Luciferin 4-monooxygenase (P08659 whole entry): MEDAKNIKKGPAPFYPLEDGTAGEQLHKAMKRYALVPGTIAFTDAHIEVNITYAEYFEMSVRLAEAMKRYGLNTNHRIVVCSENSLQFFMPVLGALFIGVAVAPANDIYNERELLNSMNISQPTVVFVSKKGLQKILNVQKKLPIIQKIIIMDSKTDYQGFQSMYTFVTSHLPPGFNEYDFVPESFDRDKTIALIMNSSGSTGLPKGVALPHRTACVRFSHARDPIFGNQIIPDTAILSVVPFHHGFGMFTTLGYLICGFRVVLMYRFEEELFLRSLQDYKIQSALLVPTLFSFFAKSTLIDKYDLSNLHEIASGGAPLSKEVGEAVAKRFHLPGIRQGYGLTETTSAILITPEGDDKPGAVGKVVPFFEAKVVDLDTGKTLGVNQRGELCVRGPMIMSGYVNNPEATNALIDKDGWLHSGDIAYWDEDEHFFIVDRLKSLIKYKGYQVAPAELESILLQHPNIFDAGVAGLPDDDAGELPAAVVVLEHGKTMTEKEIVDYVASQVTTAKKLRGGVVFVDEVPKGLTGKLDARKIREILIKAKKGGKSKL

Compound: COc1ccc(C(=O)Nc2ccccc2C(=O)Nc2cccnc2)cc1
- EC50 [1]: 1.61 µM (active)
- EC50 [2]: 6.59 µM (active)

Compound: COc1ccc(S(=O)(=O)N2CCN(Cc3ccc4c(c3)OCO4)CC2)c2ccccc12
- EC50 [1]: > 112 µM (not active)
- EC50 [2]: > 112 µM (not active)

Compound: CCC(NC(=O)C1(C)CC1(Br)Br)c1ccc(C)cc1 (stereo not drawn)
- AC50 (Cytochrome P450 2D6): 7.94 µM (inconclusive)
- AC50 (Cytochrome P450 1A2): 20 µM (inconclusive)

Compound: COC(=O)[C@@]1(Cc2ccc(F)cc2)[C@H]2c3cc(C(=O)N4CCCC4)n(Cc4cccc5ccccc45)c3C[C@H]2CN1C(=O)c1ccccc1
- AC50 (Cytochrome P450 2C19; read-out: AC50): 7.94 µM (inconclusive)
- AC50 (Cytochrome P450 1A2): 15.8 µM (inconclusive)

Compound: O=C(N[C@@H](c1ccccc1)[C@@H]1C[C@H]1C(=O)NCc1ccccn1)OCc1ccccc1
- AC50 (Cytochrome P450 1A2): 10 µM (inconclusive)
- AC50 (Cytochrome P450 2C9): 20 µM (inconclusive)

Compound: COc1ccc(C(=O)/C=C2/C(=O)Nc3ccccc32)cc1
- EC50 [3]: 18.1 µM (active)
- EC50 [4]: > 120 µM (not active)
- EC50 (H4): 17.1 µM (active)
- AC50 [5]: 4.39 µM (active)

Compound: CCOC(=O)c1cc(-c2ccccc2)sc1NC(=S)Nc1cc(C)ccn1
- EC50 [6]: 11.1 µM (inconclusive)
- EC50 [7]: 0.77 µM (inconclusive)
- AC50 (Cytochrome P450 2C19; read-out: AC50): 6.31 µM (inconclusive)
- AC50 (Cytochrome P450 1A2): 3.55 µM (inconclusive)
- AC50 (Cytochrome P450 2C9): 5.62 µM (inconclusive)

Compound: O=C(Nc1ccccc1)OC[C@H](CN1CCCCC1)OC(=O)Nc1ccccc1
- AC50 (Cytochrome P450 2C19; read-out: AC50): 5.01 µM (inconclusive)
- AC50 (Cytochrome P450 1A2): 12.6 µM (inconclusive)

Compound: COC(=O)c1ccc(/C=C/c2c(-c3ccc(OC)cc3)oc3ccccc23)cc1
- AC50 [5]: 2.47 µM (active)

Compound: N=C(NOC(=O)c1ccccc1Cl)c1cccnc1
- EC50 [1]: 23.6 µM (active)
- EC50 [2]: > 112 µM (not active)

Compound: CC(=O)Nc1ccc(S(=O)(=O)N2CCC(C(=O)NCc3ccco3)CC2)cc1
- EC50 [1]: > 112 µM (not active)
- EC50 [2]: > 112 µM (not active)

Compound: Cc1nc2ccccc2nc(C)c1=NO
- AC50 (Cytochrome P450 2C19): inconclusive
- AC50 (Cytochrome P450 1A2): 17.8 µM (inconclusive)

Compound: Cc1cccc(NC(=O)CCCNC(=O)c2ccc(Cl)cc2)n1
- EC50 [1]: > 112 µM (not active)
- EC50 [2]: 16 µM (active)

Compound: CCc1ccc2c(c1)cc(CN(C(S)=Nc1cccc(C)c1)C1CC1)c1nnnn12
- AC50 (Cytochrome P450 1A2): 12.6 µM (inconclusive)
- AC50 (Cytochrome P450 2C9): 2.82 µM (inconclusive)

Compound: O=C(c1cnc2ccc3ccccc3c2c1)c1cc(F)ccc1O
- AC50 [5]: 0.562 µM (active)

Compound: Cc1ccccc1NC(=O)c1cc(S(=O)(=O)N2CCOCC2)cn1C
- EC50 [1]: > 112 µM (not active)
- EC50 [2]: > 112 µM (not active)

Compound: COc1cccc(OCCCOc2ccccc2C(C)C)c1
- AC50 (Cytochrome P450 1A2): 22.4 µM (inconclusive)
- AC50 (Cytochrome P450 3A4): 0.0178 µM (inconclusive)
- AC50 (Cytochrome P450 2C9): 25.1 µM (inconclusive)

Compound: CC(c1ccccc1)N1C(=O)/C(=C/c2ccncc2)SC1=S (stereo not drawn)
- AC50 [5]: 19 µM (active)

Compound: O=C(CCc1ccccc1)NCc1cccnc1
- AC50 (Cytochrome P450 1A2): 31.6 µM (inconclusive)
- AC50 (Cytochrome P450 2C9): 1 µM (inconclusive)

Compound: Cc1ccnc(N/C=C(/NC(=O)c2ccccc2)C(=O)N/N=C\c2ccc(F)cc2)n1
- AC50 [8]: > 70 µM (inactive)
- AC50 [9]: 26.8 µM (active)

Compound: C[C@@H]1CCCCO[C@H](CN(C)Cc2ccc(C(F)(F)F)cc2)[C@H](C)CN([C@@H](C)CO)C(=O)c2cc(NC(=O)Nc3ccc(F)cc3)ccc2O1
- AC50 (Paired box protein Pax-8): 8.21 µM (active)

Compound: C[C@@H]1CN([C@@H](C)CO)C(=O)Cc2cc(NC(=O)c3ccncc3)ccc2O[C@@H]1CN(C)Cc1ccc(-c2ccccc2)cc1
- AC50 (Paired box protein Pax-8): 22.3 µM (active)

Compound: CC(C)c1ccc(/C=N/NC(=O)c2ccccn2)cc1
- AC50 [5]: 19.5 µM (active)
- IC50 (cells): 6.08 µM (active)

Compound: c1ccc2[nH]c(-c3cscn3)nc2c1 [THIABENDAZOLE]
- EC50 [3]: 14.3 µM (active)
- EC50 [4]: 18.7 µM (active)
- EC50 (H4): 23.7 µM (active)
- AC50 (Cytochrome P450 2C19; read-out: AC50): 7.94 µM (inconclusive)
- AC50 (Cytochrome P450 2D6): 10 µM (inconclusive)
- AC50 (Cytochrome P450 1A2): 0.126 µM (active)

— ChEMBL document CHEMBL1201862, “PubChem BioAssay data set” (2004)
